In this experiment the target is T1, BmaDAF-12 (Brugia malayi, UniProt A0A4E9F2L4, R841H).
T1 sequence (A0A4E9F2L4 639-880 R841H): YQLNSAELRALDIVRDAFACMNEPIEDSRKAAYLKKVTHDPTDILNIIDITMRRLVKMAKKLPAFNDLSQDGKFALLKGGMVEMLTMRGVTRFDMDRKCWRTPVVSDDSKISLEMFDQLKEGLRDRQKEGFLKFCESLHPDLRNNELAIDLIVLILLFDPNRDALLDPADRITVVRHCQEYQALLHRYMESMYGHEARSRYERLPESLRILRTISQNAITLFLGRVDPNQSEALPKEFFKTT
Nature of the experiment: cell-based.

In the case of `CC(CCCC(C)C1CCC2C3=CCC4CC(=O)CCC4(C)C3CCC21C)C(=O)O` [Δ7-dafachronic acid, (25S)-Δ7-dafachronic acid], it took 1.8 nM to reach a half-maximal effect (EC50).
